How the values were obtained:
[1] = molecular target: Cytochrome P450 2C9 (Homo sapiens, UniProt P11712); conditions: bti-tn-5b1-4; further: in other assays of this panel Not Active means under 50% inhibition at 10 µM
[2] = molecular target: T1, Adenosine receptor A3 (Homo sapiens, UniProt P0DMS8); assay type: cell membranes, CHO-K1, Membrane; conditions: cho-k1;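 further: radioligand binding assay with AB-MECA serving as the labeled ligand; in other assays of this panel Not Active means under 50% inhibition at 10 µM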
T1 sequence (P0DMS8 whole entry): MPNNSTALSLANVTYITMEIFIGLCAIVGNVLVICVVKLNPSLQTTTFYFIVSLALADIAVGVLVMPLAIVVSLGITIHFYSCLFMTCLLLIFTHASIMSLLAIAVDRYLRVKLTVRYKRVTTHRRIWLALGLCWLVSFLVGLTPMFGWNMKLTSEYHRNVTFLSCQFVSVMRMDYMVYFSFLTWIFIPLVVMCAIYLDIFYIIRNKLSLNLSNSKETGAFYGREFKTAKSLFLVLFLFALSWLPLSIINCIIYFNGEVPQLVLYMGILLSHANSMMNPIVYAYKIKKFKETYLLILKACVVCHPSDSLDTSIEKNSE

[3] = molecular target: Voltage-gated inwardly rectifying potassium channel KCNH2 (Homo sapiens, UniProt Q12809); conditions: hek293; further: in other assays of this panel Not Active means under 50% inhibition at 10 µM
[4] = molecular target: T2, D(4) dopamine receptor (Homo sapiens, UniProt P21917); experiment: DRUGMATRIX: Dopamine D4.2 radioligand binding (ligand: [3H] Spiperone); assay type: cell membranes, CHO-K1, Membrane; conditions: cho-k1; Not Active = under 50% inhibition at 10 µM
T2 sequence (P21917 whole entry): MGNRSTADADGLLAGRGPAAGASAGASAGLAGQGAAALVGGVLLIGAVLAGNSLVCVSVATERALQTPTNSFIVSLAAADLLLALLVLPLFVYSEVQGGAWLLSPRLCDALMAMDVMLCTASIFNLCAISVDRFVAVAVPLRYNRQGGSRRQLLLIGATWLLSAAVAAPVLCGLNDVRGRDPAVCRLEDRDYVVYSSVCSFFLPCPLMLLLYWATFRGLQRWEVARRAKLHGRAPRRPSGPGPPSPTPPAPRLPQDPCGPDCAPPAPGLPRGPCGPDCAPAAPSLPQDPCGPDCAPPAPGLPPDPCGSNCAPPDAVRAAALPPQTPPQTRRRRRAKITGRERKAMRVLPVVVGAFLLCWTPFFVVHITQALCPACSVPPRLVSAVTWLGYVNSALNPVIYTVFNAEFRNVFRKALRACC

[5] = molecular target: Sodium-dependent noradrenaline transporter (Homo sapiens, UniProt P23975); experiment: DRUGMATRIX: Norepinephrine Transporter radioligand binding (ligand: [125I] RTI-55); assay type: cell membranes, MDCK, Membrane; conditions: Not Active = under 50% inhibition at 10 µM
[6] = molecular target: T3, Nitric oxide synthase, inducible (Mus musculus, UniProt P29477); parameters: species or system Escherichia coli;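 further: inhibition of iNOS enzyme activity measured with L-arginine as substrate; in other assays of this panel Not Active means under 50% inhibition at 10 µM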
T3 sequence (P29477 whole entry): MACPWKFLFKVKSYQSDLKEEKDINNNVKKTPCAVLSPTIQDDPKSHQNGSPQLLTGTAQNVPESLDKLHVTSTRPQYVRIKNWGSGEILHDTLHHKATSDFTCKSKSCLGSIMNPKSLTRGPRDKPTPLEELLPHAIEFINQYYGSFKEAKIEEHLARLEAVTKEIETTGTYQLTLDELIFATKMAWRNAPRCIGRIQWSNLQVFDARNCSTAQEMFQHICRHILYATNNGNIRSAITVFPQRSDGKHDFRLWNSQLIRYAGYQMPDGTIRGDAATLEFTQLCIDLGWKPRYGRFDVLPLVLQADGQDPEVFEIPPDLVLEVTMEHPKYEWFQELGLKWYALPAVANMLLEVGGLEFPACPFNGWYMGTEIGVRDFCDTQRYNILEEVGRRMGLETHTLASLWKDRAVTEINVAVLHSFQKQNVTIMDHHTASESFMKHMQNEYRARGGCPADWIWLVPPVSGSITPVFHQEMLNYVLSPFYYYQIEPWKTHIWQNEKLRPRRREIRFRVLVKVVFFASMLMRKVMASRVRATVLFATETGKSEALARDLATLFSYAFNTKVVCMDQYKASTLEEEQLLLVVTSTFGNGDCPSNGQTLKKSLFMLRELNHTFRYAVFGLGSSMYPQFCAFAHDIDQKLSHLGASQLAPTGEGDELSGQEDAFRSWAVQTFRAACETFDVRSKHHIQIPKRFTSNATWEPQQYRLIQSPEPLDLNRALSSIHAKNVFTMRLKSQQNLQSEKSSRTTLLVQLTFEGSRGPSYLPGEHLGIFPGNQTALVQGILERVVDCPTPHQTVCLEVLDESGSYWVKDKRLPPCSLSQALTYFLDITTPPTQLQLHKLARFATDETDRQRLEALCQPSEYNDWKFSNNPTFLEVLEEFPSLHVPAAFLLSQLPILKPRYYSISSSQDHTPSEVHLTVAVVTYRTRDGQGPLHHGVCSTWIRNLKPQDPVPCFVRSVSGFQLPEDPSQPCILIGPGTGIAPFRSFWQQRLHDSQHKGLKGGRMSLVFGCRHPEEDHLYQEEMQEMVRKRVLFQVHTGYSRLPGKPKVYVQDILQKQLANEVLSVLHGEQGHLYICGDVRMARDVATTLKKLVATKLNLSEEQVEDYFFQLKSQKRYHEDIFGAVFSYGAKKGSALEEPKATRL

[7] = molecular target: Melanocortin receptor 3 (Homo sapiens, UniProt P41968); assay type: cell membranes, HEK293, Membrane; conditions: hek293; further: in other assays of this panel Not Active means under 50% inhibition at 10 µM
[8] = molecular target: T4, Caspase-1 (Homo sapiens, UniProt P29466); parameters: species or system Escherichia coli
T4 sequence (P29466 whole entry): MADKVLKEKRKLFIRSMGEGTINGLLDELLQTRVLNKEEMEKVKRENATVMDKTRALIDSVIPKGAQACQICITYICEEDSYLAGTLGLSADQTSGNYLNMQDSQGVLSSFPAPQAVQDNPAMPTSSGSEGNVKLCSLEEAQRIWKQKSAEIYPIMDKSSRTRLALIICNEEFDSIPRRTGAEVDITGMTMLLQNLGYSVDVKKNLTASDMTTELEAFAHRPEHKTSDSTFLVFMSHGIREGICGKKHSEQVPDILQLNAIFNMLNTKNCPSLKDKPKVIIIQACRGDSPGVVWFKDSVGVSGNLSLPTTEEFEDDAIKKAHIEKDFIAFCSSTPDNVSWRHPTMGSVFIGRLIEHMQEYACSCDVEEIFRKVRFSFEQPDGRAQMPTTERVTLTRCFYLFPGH

Sequence of Melanocortin receptor 3 (P41968 whole entry): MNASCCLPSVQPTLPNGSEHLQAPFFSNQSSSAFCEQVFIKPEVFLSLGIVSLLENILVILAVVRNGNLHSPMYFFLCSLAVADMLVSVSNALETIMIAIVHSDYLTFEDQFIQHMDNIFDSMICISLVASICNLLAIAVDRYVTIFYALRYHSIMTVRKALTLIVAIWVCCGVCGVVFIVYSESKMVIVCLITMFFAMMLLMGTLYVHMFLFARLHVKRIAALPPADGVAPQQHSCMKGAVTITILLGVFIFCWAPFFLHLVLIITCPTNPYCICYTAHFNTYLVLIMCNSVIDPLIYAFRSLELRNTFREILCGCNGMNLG
Sequence of Voltage-gated inwardly rectifying potassium channel KCNH2 (Q12809 whole entry): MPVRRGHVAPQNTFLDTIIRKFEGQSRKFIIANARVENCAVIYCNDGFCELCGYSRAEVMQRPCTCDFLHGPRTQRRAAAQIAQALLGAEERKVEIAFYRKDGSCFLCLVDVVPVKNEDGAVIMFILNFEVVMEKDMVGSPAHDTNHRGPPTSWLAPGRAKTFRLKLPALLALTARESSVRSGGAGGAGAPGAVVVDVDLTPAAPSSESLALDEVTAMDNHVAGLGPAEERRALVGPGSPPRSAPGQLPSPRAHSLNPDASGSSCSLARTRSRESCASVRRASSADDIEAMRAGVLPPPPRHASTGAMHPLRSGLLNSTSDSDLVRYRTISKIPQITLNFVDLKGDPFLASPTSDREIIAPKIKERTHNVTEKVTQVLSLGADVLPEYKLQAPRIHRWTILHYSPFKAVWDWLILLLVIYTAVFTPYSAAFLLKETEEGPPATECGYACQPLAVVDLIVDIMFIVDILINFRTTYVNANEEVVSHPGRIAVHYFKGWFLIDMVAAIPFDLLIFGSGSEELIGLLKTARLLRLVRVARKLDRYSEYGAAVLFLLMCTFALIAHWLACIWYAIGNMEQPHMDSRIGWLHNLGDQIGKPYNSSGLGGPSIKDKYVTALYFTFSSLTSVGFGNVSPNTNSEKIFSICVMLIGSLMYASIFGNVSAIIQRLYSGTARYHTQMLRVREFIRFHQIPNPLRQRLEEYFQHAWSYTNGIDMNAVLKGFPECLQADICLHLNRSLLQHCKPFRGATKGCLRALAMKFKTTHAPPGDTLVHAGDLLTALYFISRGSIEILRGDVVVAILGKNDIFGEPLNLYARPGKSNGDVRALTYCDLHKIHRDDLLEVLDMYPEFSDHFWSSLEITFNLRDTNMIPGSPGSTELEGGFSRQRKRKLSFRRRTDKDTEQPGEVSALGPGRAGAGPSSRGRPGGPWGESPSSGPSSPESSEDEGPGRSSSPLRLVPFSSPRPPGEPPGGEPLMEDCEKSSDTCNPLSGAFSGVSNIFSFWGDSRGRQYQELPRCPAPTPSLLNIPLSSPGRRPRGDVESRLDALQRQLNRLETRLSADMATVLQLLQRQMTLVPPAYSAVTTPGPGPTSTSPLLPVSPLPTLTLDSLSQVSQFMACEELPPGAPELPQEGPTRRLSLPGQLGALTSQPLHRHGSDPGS
Sequence of Cytochrome P450 2C9 (P11712 whole entry): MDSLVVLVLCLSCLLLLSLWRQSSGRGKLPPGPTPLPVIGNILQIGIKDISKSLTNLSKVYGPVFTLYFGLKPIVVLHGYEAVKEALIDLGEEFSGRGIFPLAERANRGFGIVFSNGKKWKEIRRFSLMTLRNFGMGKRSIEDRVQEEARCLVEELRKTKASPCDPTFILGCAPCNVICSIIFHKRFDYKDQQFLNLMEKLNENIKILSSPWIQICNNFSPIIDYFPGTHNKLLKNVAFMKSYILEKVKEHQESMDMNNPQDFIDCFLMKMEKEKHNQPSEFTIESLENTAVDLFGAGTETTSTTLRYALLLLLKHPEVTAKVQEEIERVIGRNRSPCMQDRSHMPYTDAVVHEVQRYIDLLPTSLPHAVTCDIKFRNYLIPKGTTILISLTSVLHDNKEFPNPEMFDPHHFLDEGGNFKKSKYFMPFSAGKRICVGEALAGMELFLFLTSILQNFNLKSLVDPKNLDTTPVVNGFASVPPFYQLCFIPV
Sequence of Sodium-dependent noradrenaline transporter (P23975 whole entry): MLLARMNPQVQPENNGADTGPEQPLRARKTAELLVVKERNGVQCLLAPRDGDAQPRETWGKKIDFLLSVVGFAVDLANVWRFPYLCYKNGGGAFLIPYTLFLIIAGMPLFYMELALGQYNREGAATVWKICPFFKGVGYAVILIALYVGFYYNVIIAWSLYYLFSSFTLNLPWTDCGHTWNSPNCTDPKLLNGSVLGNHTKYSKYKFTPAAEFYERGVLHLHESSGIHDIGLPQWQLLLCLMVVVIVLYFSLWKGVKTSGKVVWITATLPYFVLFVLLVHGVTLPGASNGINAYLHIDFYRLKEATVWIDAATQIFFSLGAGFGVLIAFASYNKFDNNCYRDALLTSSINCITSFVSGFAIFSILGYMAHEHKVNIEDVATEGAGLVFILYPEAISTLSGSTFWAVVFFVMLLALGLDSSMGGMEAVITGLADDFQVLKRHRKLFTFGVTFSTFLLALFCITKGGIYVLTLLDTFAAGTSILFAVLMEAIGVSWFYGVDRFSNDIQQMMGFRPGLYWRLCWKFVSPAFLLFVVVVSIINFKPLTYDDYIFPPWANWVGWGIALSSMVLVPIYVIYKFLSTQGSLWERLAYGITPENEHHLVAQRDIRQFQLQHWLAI

Compound	IC50 [1]	Ki [1]	IC50 [2]	IC50 [3]	Ki [3]	IC50 [4]	IC50 ([5]; mdck)	IC50 [6]	IC50 [7]	IC50 [8]	Ki [2]	Ki [4]	Ki ([5]; mdck)	Ki [6]	Ki [7]	Ki [8]	IC50 ([5]; read-out: IC50) [µM]	Ki ([5]; read-out: Ki) [µM]
c1ccc(Cn2ccnc2)cc1	Not Active	Not Active	Not Active	Not Active	Not Active	Not Active	Not Active	Not Active	Not Active	Not Active								
CC(C)Cn1cnc2c(N)nc3ccccc3c21 [IMIQUIMOD]	Not Active	Not Active	Not Active	Not Active	Not Active	Not Active	Not Active	Not Active	Not Active	Not Active								
OC[C@H]1OC2C3[C@@H](CO)OC(O[C@H]4[C@H](O)[C@@H](O)[C@@H](O[C@H]5[C@H](O)[C@@H](O)[C@@H](O[C@H]6[C@H](O)[C@@H](O)[C@@H](O[C@H]7[C@H](O)[C@@H](O)[C@@H](O[C@H]8[C@H](O)[C@@H](O)[C@@H](O[C@H]9[C@H](O)[C@@H](O)C(OC1[C@H](O)[C@H]2O)O[C@@H]9CO)O[C@@H]8CO)O[C@@H]7CO)O[C@@H]6CO)O[C@@H]5CO)O[C@@H]4CO)[C@H](O)[C@H]3O	Not Active	Not Active	Not Active	Not Active	Not Active	Not Active	Not Active	Not Active	Not Active	Not Active								
COc1cc(/C=C/C(=O)O)ccc1O [FERULATE]	Not Active	Not Active	Not Active	Not Active	Not Active	Not Active	Not Active	Not Active	Not Active	Not Active								
CO[C@H]1O[C@@H]2O[C@@]3(C)CC[C@H]4[C@H](C)CC[C@@H]([C@H]1C)[C@@]24OO3	Not Active	Not Active	Not Active	Not Active	Not Active	Not Active	Not Active	Not Active	Not Active	Not Active								
C[C@@H]1[C@H](O)[C@@H](C)/C=C/C=C/C=C/C=C/C=C/C=C/C=C/[C@H](O[C@@H]2O[C@H](C)[C@@H](O)[C@H](N)[C@@H]2O)C[C@@H]2O[C@](O)(C[C@@H](O)C[C@@H](O)[C@H](O)CC[C@@H](O)C[C@@H](O)CC(=O)O[C@H]1C)C[C@H](O)[C@H]2C(=O)O [AMPHOTERICIN B]	Not Active	Not Active	Not Active	Not Active	Not Active	Not Active	Not Active	Not Active	Not Active	Not Active								
Oc1ncnc2[nH]ncc12 [ALLOPURINOL]	Not Active	Not Active	Not Active	Not Active	Not Active	Not Active	Not Active	Not Active	Not Active	Not Active								
NC(=O)CN1CCCC1=O	Not Active	Not Active	Not Active	Not Active	Not Active	Not Active	Not Active	Not Active	Not Active	Not Active								
POVIDONE	Not Active	Not Active	Not Active	Not Active	Not Active	Not Active	Not Active	Not Active	Not Active	Not Active	Not Active	Not Active	Not Active	Not Active	Not Active	Not Active		
Cc1c(N)nc([C@H](CC(N)=O)NC[C@H](N)C(N)=O)nc1C(=O)N[C@H](C(=O)N[C@H](C)[C@@H](O)[C@H](C)C(=O)N[C@H](C(=O)NCCc1nc(-c2nc(C(=O)NCCC[S+](C)C)cs2)cs1)[C@@H](C)O)[C@@H](O[C@@H]1O[C@@H](CO)[C@@H](O)[C@H](O)[C@@H]1O[C@H]1O[C@H](CO)[C@@H](O)[C@H](OC(N)=O)[C@@H]1O)c1c[nH]cn1.[Br-] [BLEOMYCIN A2]	Not Active	Not Active	Not Active	Not Active	Not Active	Not Active	Not Active	Not Active	Not Active	Not Active								
CN(Cc1cc(Br)cc(Br)c1N)C1CCCCC1 [BROMHEXINE]	Not Active	Not Active	Not Active	Not Active	Not Active	Not Active	Not Active	Not Active	Not Active	Not Active								
Nc1ccc(Cc2ccc(N)cc2)cc1	Not Active	Not Active	Not Active	Not Active	Not Active	Not Active	Not Active	Not Active	Not Active	Not Active								
C[C@]12CC[C@@H](O)C[C@@H]1CC[C@@H]1[C@@H]2CC[C@]2(C)C(=O)CC[C@@H]12 [ANDROSTERONE]	Not Active	Not Active	Not Active	Not Active	Not Active	Not Active	Not Active	Not Active	Not Active	Not Active								
O=C(O)c1ccccc1 [BENZOIC ACID]	Not Active	Not Active	Not Active	Not Active	Not Active	Not Active	Not Active	Not Active	Not Active	Not Active								
CC(=O)Nc1ccc2c(c1)Cc1ccccc1-2 [2-ACETYLAMINOFLUORENE]	Not Active	Not Active	Not Active	Not Active	Not Active	Not Active		Not Active	Not Active	Not Active							8.59	8.52

Reference: ChEMBL document CHEMBL1909046, “DrugMatrix in vitro pharmacology data”
